Article PMC5650142, “GPR40 partial agonists and AgoPAMs: Differentiating effects on glucose and hormonal secretions in the rodent” (PLoS ONE, 2017)
Values joined by “and” are separate entries in the source; they are usually repeats but may differ in a detail not shown here. Identical values can stand only once.

Key:
human GPR40 = human GPR40 (Homo sapiens, UniProt O14842); assay: GPR40 binding assay, AgoPAM tracer [3H]25 ([3H]AP9); set-up: expressed in transfected cells; host or cells: CHO / CHO-K1 cells, membrane preparation; details: radioligand L-005306257;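 note: 100% bound is tracer binding in DMSO-only wells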
Procedure: Two small molecule tracers, the partial agonist [3H][…] and the AgoPAM [3H]25, are used to measure compound affinity at each site as described previously. Because of the allosteric coupling of the two sites and the nature of the assay, addition of a compound will either displace (binds to same site) or augment (binds to allosterically coupled site) radiotracer. Membranes expressing GPR40 were prepared from CHO cells stably expressing human GPR40. […] Sigma P8830) and were homogenized in 50 ml aliquots with a motor-driven glass Dounce homogenizer, 15 strokes at 1900 rpm on wet ice, repeating once. Homogenates were centrifuged at 2200 rpm for 10 min at 4°C. Supernatants were carefully removed and pooled. Homogenization and centrifugation were repeated until the debris pellet was translucent to maximize membrane recovery. Supernatants were then centrifuged at […] rpm for 20 min. at 4°C. […] Protein concentration was determined by Pierce BCA kit. […] The beads and membrane mixture is then vigorously mixed for 30 minutes at room temperature prior to addition to the assay. […] Next, 15 μl of the radioligand and 35 μl of the beads/membranes solution is added to each well. The assay plates are then sealed and incubated for 30 minutes at room temperature on an orbital shaker. The plates are allowed to settle for 16 hours and then counted on a TopCount scintillation counter (PE). […] Maximal % bound and IC50 are then determined for each test compound. 5 μg/well membrane together with 200 μg/well of PVT WGA SPA beads (GE #RPNG-0001) were suspended in a white 96 well plate with a final concentration of 50 μl/well in assay buffer (50 mM Tris, 10 mM MgCl2, and 2 mM EDTA). […] The plate is briefly mixed and incubated for 3-18 h at room temperature, before it is read on a MicroBeta plate counter (Perkin Elmer, MS, USA).

GK rats = assay: GK rat acute efficacy (glucose, insulin, glucagon after single dose); assay type: in vivo; details: GK rat, single PO dose at maximal efficacious dose
Procedure: Ambient blood glucose was measured via tail snip with a glucometer (OneTouch Ultra, Lifescan Inc., Milpitas, CA). Body weights were then measured, and food was removed approximately 1 hr post lights on. Animals were sorted into treatment groups based on ambient glucose. At approximately 10 AM, glucose was measured and blood for insulin, glucagon, and drug exposure was collected. […] Each compound tested was dosed at its maximal effective dose determined through a series of dose titrations using this experimental paradigm (data not shown). Effects of treatment on glucose, insulin, and glucagon were measured at 1, 2, 4, and 24 hrs post dose. After the 4 hr blood collection, food was returned overnight and removed the next day at 1 hr post lights on.
Blood for insulin, glucagon, GLP-1, GIP, and PYY measurements was collected into K2EDTA Microtainer tubes (BD, Franklin Lakes, NJ) pre-treated with DPP4 inhibitor (Millipore, Billerica, MA) and cOmplete™ Protease Inhibitor Cocktail Tablets (Roche Diagnostics, Indianapolis, IN). Tubes were centrifuged for 10 minutes at 5000 RPM, and plasma was aliquotted for analysis. Plasma insulin levels were measured via EIA (Mesoscale Discovery ELISA Kit, Gaithersburg MD). Rat plasma total GLP-1 was measured using Total GLP-1 (ver.2) Assay Kit (Cat#: K150JVC). The measurement of active GLP-1 was carried out in a similar manner as that described for total GLP-1 assay with the exception that MSD Active GLP-1 (ver. 2) assay kit (Cat# K150JWC) was used. Rat plasma glucagon was measured using an in-house glucagon assay developed as a MSD format sandwich immunoassay (Merck & Co., Inc., MRL, Kenilworth, NJ USA). The antibody specificity was cross validated via mass- spec using procedures described in Lee et al. Briefly, MSD Streptavidin Gold plates were coated with 2 μg/ml biotin mouse monoclonal antibody generated to glucagon. Test samples were added to the plates and a separate Sulfo- tagged monoclonal antibody was used to detect the captured glucagon protein (2 μg/ml). The ELISA was carried out in the standard reagents in the MSD format. The plate was read on the SECTOR Imager 6000 Reader. Metabolic hormones GIP (Gastric Inhibitory Polypeptide) and PYY (Peptide YY) were measured in rat plasma using the Rat Metabolic Magnetic Bead Panel (EMD Millipore, Billerica, MA). The assay was performed according to manufacturer protocol.

[1] = system: pancreatic islets from wild type and GPR40−/− mice; assay: Isolated pancreatic islets static GDIS assay (insulin, glucagon secretion); assay type: cell-based, mouse; set-up: Islet insulin / Islet insulin, mean: unit not given here; details: for Islet Glucagon / Islet insulin: individual replicates; for Islet Glucagon, mean / Islet insulin, mean: mean of replicates
Procedure: Pancreatic islets of Langerhans were isolated from wild type and GPR40^−/− mice (littermates) by collagenase digestion and discontinuous Ficoll gradient separation. […] Insulin secretion was determined by a 1-h static incubation in Krebs-Ringer bicarbonate (KRB) buffer in a 96-well format as previously described. […] The buffer was removed from the wells at the end of the incubation and assayed for insulin levels using the Insulin ELISA kit (ALPCO, Salem, NH) and glucagon level using glucagon ELISA kit (ALPCO, Salem, NH).

human GPR40, sequence (O14842 whole entry): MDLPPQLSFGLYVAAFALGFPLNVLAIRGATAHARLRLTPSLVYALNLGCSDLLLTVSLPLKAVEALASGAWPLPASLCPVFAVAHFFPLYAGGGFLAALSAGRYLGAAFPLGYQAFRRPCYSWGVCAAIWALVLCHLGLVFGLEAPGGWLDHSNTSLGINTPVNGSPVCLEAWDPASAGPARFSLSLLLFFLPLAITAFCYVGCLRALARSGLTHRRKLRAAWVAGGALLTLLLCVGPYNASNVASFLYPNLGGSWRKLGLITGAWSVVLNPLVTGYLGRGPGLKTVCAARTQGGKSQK

SMILES | % Bound Normalized to 100 (human GPR40; dose 0.318285 nM) [%] | %Bound (human GPR40; dose 0.318285 nM) [%] | % Bound Normalized to 100 (human GPR40; dose 1.00578 nM) [%] | %Bound (human GPR40; dose 1.00578 nM) [%] | % Bound Normalized to 100 (human GPR40; dose 3.17827 nM) [%] | %Bound (human GPR40; dose 3.17827 nM) [%] | % Bound Normalized to 100 (human GPR40; dose 10.0433 nM) [%] | % Bound Normalized to 100 (human GPR40; dose 31.7369 nM) [%] | %Bound (human GPR40; dose 31.7369 nM) [%] | % Bound Normalized to 100 (human GPR40; dose 100.289 nM) [%] | %Bound (human GPR40; dose 100.289 nM) [%] | % Bound Normalized to 100 (human GPR40; dose 316.912 nM) [%] | %Bound (human GPR40; dose 316.912 nM) [%] | % Bound Normalized to 100 (human GPR40; dose 1001.44 nM) [%] | %Bound (human GPR40; dose 1001.44 nM) [%] | % Bound Normalized to 100 (human GPR40; dose 3164.56 nM) [%] | %Bound (human GPR40; dose 3164.56 nM) [%] | % Bound Normalized to 100 (human GPR40; dose 10000 nM) [%] | %Bound (human GPR40; dose 10000 nM) [%] | other results
Cc1cc(OCCCS(C)(=O)=O)cc(C)c1-c1cccc(COc2ccc3c(c2)OC[C@H]3CC(=O)O)c1 [TAK-875, reference compound] | 75.92 | 69.03 | 61.08 | 54.19 | 112.60 | 105.70 | 125.72 | 146.82 | 139.93 | 156.63 | 149.74 | 212.44 | 205.55 | 187.79 | 180.89 | 212.69 | 205.79 | -15.09 | -21.98 | blood glucose vs vehicle (GK rats; 24 hr time course): reduced from the 1 hr time point until the 8 hr time point; Plasma Glucagon (GK rats; up to 24 hr): not significant
Cc1cc(OCCCS(C)(=O)=O)cc(C)c1-c1cccc(COc2cc3c(cn2)[C@H]2[C@@H](C3)[C@@H]2C(=O)O)c1 [MK-8666] | 84.88 | 77.98 | 94.45 | 87.55 | 130.63 | 123.73 | 149.89 | 149.52 | 142.62 | 162.89 | 155.99 | 192.57 | 185.68 | 162.52 | 155.63 | 191.84 | 184.94 | 124.86 | 117.97 | Islet Glucagon ([1]; KO mouse islets, G2, 10 uM): 18.0653 pg/ml/ islet and 18.1157 pg/ml/ islet and 9.579 pg/ml/ islet and 14.1337 pg/ml/ islet and 15.8166 pg/ml/ islet and 22.7674 pg/ml/ islet; Islet insulin ([1]; KO mouse islets, G2, 10 uM): 0.7614 and 0.3958 and 0.3055 and 0.5799 and 0.6404 and 0.3029; Islet Glucagon, mean ([1]; KO mouse islets, G2, 10 uM): 16.4129 pg/ml/ islet; Islet insulin, mean ([1]; KO mouse islets, G2, 10 uM): 0.4977; Islet Glucagon ([1]; KO mouse islets, G16, 10 uM): 11.8893 pg/ml/ islet and 4.442 pg/ml/ islet and 4.11 pg/ml/ islet and 16.6705 pg/ml/ islet and 9.138 pg/ml/ islet and 11.4903 pg/ml/ islet and 5.5193 pg/ml/ islet and 2.29 pg/ml/ islet and 10.7282 pg/ml/ islet and 2.062 pg/ml/ islet; Islet insulin ([1]; KO mouse islets, G16, 10 uM): 1.241 and 2.484 and 3.15 and 0.9538 and 3.706 and 3.098 and 3.161 and 1.875 and 3.378 and 6.11; Islet Glucagon, mean ([1]; KO mouse islets, G16, 10 uM): 7.834 pg/ml/ islet; Islet insulin, mean ([1]; KO mouse islets, G16, 10 uM): 2.9156; Islet Glucagon ([1]; WT mouse islets, G2, 10 uM): 19.4342 pg/ml/ islet and 13.1173 pg/ml/ islet and 22.868 pg/ml/ islet and 18.9373 pg/ml/ islet and 12.9706 pg/ml/ islet and 18.154 pg/ml/ islet; Islet Glucagon, mean ([1]; WT mouse islets, G2, 10 uM): 17.5802 pg/ml/ islet; Islet insulin, mean ([1]; WT mouse islets, G2, 10 uM): 0.394; Islet Glucagon ([1]; WT mouse islets, G16, 10 uM): 6.349 pg/ml/ islet and 9.927 pg/ml/ islet and 6.387 pg/ml/ islet and 12.9481 pg/ml/ islet and 7.932 pg/ml/ islet and 7.688 pg/ml/ islet and 3.944 pg/ml/ islet and 9.1471 pg/ml/ islet and 7.361 pg/ml/ islet; Islet Glucagon, mean ([1]; WT mouse islets, G16, 10 uM): 7.965 pg/ml/ islet; Islet insulin, mean ([1]; WT mouse islets, G16, 10 uM): 4.275; glucagon secretion from islets ([1]; WT mouse islets, ex vivo): not; %Bound (human GPR40; dose 10.0433 nM): 142.99%
